# Results published in patent US11648284B2, “Composition for ameliorating psoriasis symptoms containing extract of Sphallerocarpus gracilis” (KOREA INSTITUTE OF SCIENCE AND TECHNOLOGY, priority 2020, dated 2023).
# Key:
# [1] = tested on: filaggrin, loricrin, keratin 1 and keratin 14; experiment: Immunofluorescence of biomarkers for epithelial tissue damage in back skin of psoriasis animal model; type: in vivo, Balb/c mice; conditions: after treatment for a week, IMQ group decreased compared to non-treatment group
# Description: (§1) 6-week-old male Balb/c mice (Kangwon Life Science, Korea) were purchased and acclimated for a week, and psoriasis was induced using 5% imiquimod (Donga ST, Korea). FIG. 1 is a schematic experimental scheme of an animal model. Anti-psoriatic efficacy was investigated using a total of 20 animal models including 5 animals per experimental group.
# (§2) In order to determine the effect of the extract of Sphallerocarpus gracilis on psoriasis caused by imiquimod, the experimental animals of Section 2-1 were used. The following four experimental groups were constructed and five animals were randomly assigned to each group:
# The experiment was conducted by inducing psoriasis with IMQ cream and then performing daily application in the amount shown in FIG. 2 to the experimental group and the DEX group. FIG. 3 is an image showing the treatment group for 7 days compared to the psoriasis-induced model as the animal experimental model.
# After treatment for a week, back skin tissue was removed from each animal and a paraffin block was then prepared. A paraffin block was cut to 5 μm to prepare a slide sample, and then the change in biomarkers for epithelial tissue damage due to psoriasis was measured through immunofluorescence.
# [2] = tested on: psoriasis caused by imiquimod; experiment: Epithelial thickness of back skin by H&E staining in imiquimod psoriasis animal model; type: in vivo, Balb/c mice; conditions: after treatment for a week, skin application, compared to the IMQ group
# Description: as §1, §2
# Normal control without any treatment (Non-treatment control, NTC);
# Disease group with psoriasis induced using imiquimod by the method of Section 2-1 (IMQ);
# Group to the skin of which dexamethasone was applied every day after induction of psoriasis (Positive control, DEX); and
# Group to the skin of which the extract of Sphallerocarpus gracilis of Example 1 was applied (Experimental group, M215) […]
# After treatment for a week, the back skin tissue was removed from each animal, and then a paraffin block was prepared. The paraffin block was cut to 5 μm to prepare a slide sample, and then the change in the thickness of the skin tissue was measured through H&E staining.
smiles,measurement,setting,value
"C[C@@H]1C[C@H]2[C@@H]3CCC4=CC(=O)C=C[C@]4(C)[C@@]3(F)[C@@H](O)C[C@]2(C)[C@@]1(O)C(=O)CO [DEX, dexamethasone]",expression level of filaggrin,[1],increased
same,expression level of keratin 1,[1],increased
same,expression level of keratin 14,[1],increased
same,expression level of loricrin,[1],increased
same,thickness of the epithelial layer,[2],decreased thickness
